The values below are quoted from earlier work in patent US20050197327A1, “Compounds, compositions, and methods” (priority 2003, published 2005).

The GI50 is the concentration at which growth is held to half of that of the control.

SMILES strings stand for the structures.

This series has as its system A549 cells. Conditions: data provided by National Cancer Institute.
As to `CC(=O)O[C@H]1C(=O)[C@@]2(C)[C@H]([C@H](OC(=O)c3ccccc3)[C@]3(O)C[C@H](OC(=O)[C@H](O)[C@@H](NC(=O)c4ccccc4)c4ccccc4)C(C)=C1C3(C)C)[C@]1(OC(C)=O)CO[C@@H]1C[C@@H]2O` [paclitaxel], the GI50 was 4 nM. As for `O=c1[nH]cc(F)c(=O)[nH]1` [5-fluorouracil], the concentration for 50% growth inhibition (GI50) was 1000 nM. Consider `NC(=O)NO` [hydroxyurea], for which the concentration for 50% growth inhibition (GI50) is 500000 nM. Consider `COc1cccc2c1C(=O)c1c(O)c3c(c(O)c1C2=O)C[C@@](O)(C(=O)CO)C[C@@H]3O[C@H]1C[C@H](N)[C@H](O)[C@H](C)O1` [doxorubicin], for which the GI50 is 63 nM.
